Earlier results in article PMC5857253 (Bioorganic chemistry, 2018).

Target: β-galactosidase (A. oryzae) (Aspergillus oryzae, UniProt Q2UCU3)
Conditions: methods described by Bartlett et al.

Chain of β-galactosidase (A. oryzae) (Q2UCU3 19-1005): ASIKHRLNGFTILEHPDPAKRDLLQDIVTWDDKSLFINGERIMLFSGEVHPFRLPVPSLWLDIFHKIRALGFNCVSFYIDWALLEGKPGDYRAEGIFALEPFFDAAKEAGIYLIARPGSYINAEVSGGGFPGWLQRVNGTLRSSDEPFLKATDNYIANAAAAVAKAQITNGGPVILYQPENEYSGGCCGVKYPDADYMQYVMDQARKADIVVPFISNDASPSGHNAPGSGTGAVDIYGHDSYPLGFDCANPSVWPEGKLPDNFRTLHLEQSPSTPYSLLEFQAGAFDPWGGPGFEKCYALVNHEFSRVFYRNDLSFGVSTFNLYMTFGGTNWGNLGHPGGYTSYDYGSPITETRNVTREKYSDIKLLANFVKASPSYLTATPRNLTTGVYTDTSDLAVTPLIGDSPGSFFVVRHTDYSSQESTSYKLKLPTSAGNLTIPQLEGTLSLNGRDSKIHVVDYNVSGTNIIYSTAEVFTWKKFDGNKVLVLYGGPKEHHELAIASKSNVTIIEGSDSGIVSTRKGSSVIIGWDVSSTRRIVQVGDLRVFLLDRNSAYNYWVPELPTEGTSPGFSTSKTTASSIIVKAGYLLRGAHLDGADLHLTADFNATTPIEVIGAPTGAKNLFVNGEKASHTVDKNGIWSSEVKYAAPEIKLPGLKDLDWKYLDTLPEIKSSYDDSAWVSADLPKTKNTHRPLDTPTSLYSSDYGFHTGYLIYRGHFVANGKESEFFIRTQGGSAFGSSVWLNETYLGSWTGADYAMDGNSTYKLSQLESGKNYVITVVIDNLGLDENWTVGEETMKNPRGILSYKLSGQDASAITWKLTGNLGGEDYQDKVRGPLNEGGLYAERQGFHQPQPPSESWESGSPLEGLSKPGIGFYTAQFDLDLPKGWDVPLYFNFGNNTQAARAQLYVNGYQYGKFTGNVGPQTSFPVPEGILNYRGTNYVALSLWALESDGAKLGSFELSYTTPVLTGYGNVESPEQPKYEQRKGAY

In the case of Cc1ccc(C/N=C2\N[C@H](CO)[C@H](O)[C@H](O)[C@H]2O)cc1 [1a, p-methylbenzyl galactonoamidine], the “classification as putative transition state analog (TSA)” value is listed as “characterized as a putative transition state analog”.
